Results taken from patent US10888608B2, “Costimulation of chimeric antigen receptors by MyD88 and CD40 polypeptides” (BELLICUM PHARMACEUTICALS, INC., priority 2014, dated 2021).
Changes are numbered by the printed parent chain. Numbers in names are those of the source. Where two headings read alike, the source gives them in different places.

B1: N405Q-S144Aco: Caspase-9 double mutant, class predicted (protein, UniProt P55211 1-416, looked up, variant N405Q S144A)
chain: MDEADRRLLRRCRLRLVEELQVDQLWDALLSRELFRPHMIEDIQRAGSGSRRDQARQLIIDLETRGSQALPLFISCLEDTGQDMLASFLRTNRQAAKLSKPTLENLTPVVLRPEIRKPEVLRPETPRPVDIGSGGFGDVGALEALRGNADLAYILSMEPCGHCLIINNVNFCRESGLRTRTGSNIDCEKLRRRFSSLHFMVEVKGDLTAKKMVLALLELAQQDHGALDCCVVVILSHGCQASHLQFPGAVYGTDGCPVSVEKIVNIFNGTSCPSLGGKPKLFFIQACGGEQKDHGFEVASTSPEDESPGSNPEPDATPFQEGLRTFDQLDAISSLPTPSDIFVSYSTFPGFVSWRDPKSGSWYVETLDDIFEQWAHSEDLQSLLLRVANAVSVKGIYKQMPGCFQFLRKKLFFKTS
modifications: codon optimized
notes: Caspase-9 double mutant, class predicted
B2: N405Q-T317Sco: Caspase-9 double mutant, class predicted (protein, UniProt P55211 1-416, looked up, variant N405Q T317S)
chain: B1 chain with A144S, T317S
modifications: codon-optimized
notes: as for B1

Legend:
[1] = cited from earlier work
[2] = system: CD3^+ ΔCD19^+ cells; assay: Phase I clinical trial: iCasp9^+ allodepleted T cells after haplo-CD34^+ stem cell transplantation, AP1903 given for GvHD; assay type: in vivo, human
Source text: This example presents results of a phase 1 clinical trial using an alternative suicide gene strategy. Briefly, donor peripheral blood mononuclear cells were co-cultured with recipient irradiated EBV-transformed lymphoblastoid cells (40:1) for 72 hrs., allodepleted with a CD25 immunotoxin and then transduced with a retroviral supernatant carrying the iCasp9 suicide gene and a selection marker (ΔCD19); ΔCD19 allowed enrichment to >90% purity via immunomagnetic selection.
Patients developing grade 1 GvHD were treated with 0.4 mglkg AP1903 as a 2-hour infusion. Protocols for administration of AP1903 to patients grade 1 GvHD were established as follows. Patients developing GvHD after infusion of allodepleted T cells are biopsied to confirm the diagnosis and receive 0.4 mg/kg of AP1903 as a 2 h infusion. […] Patients developing grades 2-4 GvHD were administered standard systemic immunosuppressive therapy per institutional guidelines, in addition to the AP1903 dimerizer drug.
Three patients received iCasp9^+ T cells after haplo-CD34^+ stem cell transplantation (SCT), at dose levels between about 1×10^6 to about 3×10^6 cells/kg.

[3] = system: cells; assay: AP1903 amount needed in vitro for effective signaling of cells; assay type: cell-based
Procedure: The fixed dose of AP1903 for injection used, for example, may be 0.4 mg/kg intravenously infused over 2 hours. The amount of AP1903 needed in vitro for effective signaling of cells is about 10-100 nM (MW: 1412 Da). This equates to 14-140 μg/L or ˜0.014-0.14 mg/kg ([…]). The dosage may vary according to the application, and may, in certain examples, be more in the range of 0.1-10 nM, or in the range of 50-150 nM, 10-200 nM, 75-125 nM, 100-500 nM, 100-600 nM, 100-700 nM, 100-800 nM, or 100-900 nM. Doses up to 1 mg/kg were well-tolerated in the Phase I study of AP1903 provided above.

[4] = system: iC9-CD19.ζ-MC CAR-modified T cells; assay: Raji tumor NSG mouse model with iC9-CD19.ζ-MC CAR T cells and rimiducid (Example 19); assay type: in vivo, mice
Procedure: FIG. 40A-FIG. 40C provide results of the enhancement of CD19 CAR-T cell efficacy in vivo by the MyD88/CD40 chimeric costimulatory molecule using the constructs of FIG. 37A-FIG. 37E. FIG. 40A: NSG mice (n=5 per group) were engrafted with Raji-luciferase tumor cells and then treated with non-transduced (NT) or iC9-CD19.ζ-MC CAR-modified T cells on day 3. Tumor growth was measured by IVIS imaging and calculated by whole-body BLI, as shown in photos. FIG. 40B provides a graph of bioluminescent counts (BLI counts) and FIG. 40C provides a graph of (Kaplan-Meier analysis from (A)).
FIG. 41A-FIG. 41C provide results of assays of the titration of inducible chimeric Caspase-9 expressing cells, using the constructs of FIG. 37A-FIG. 37E, with rimiducid. FIG. 41A and FIG. 41B: NSG mice (n=5 per group) were engrafted with CD19^+ Raji lymphoma cells and treated with 5×10^6 iC9-CD19.ζ-MC/luciferase-transduced T cells at day 3. After 6 days, mice were treated i.p. with log dilutions of rimiducid (0.00005-5 mg/kg). BLI of CAR-T cells was assessed prior to rimiducid treatment and at 24 and 48 hours post-injection. […] FIG. 41C provides graphs of serum cytokine levels, which were measured from each group before (black line) and 24 hours post-administration (gray line) of rimiducid. *P-value=<0.01.
5×10^5 Raji tumor cells were injected i.v. into NSG mice. On day 3, CD19 CAR-modified T cells were injected i.v. and bioluminescence (BLI) was measured for either tumor or T cells on a weekly basis by IVIS imaging. […]
FIG. 40 provides the results of mouse in vivo efficacy assays using the various CD19-specific CAR constructs. […] Tumor growth was measured by IVIS imaging and calculated by whole-body BLI (B). […]
FIG. 41 provides the results of mouse in vivo assays including CD19-specific CAR constructs and the Caspase-9 safety switch. […] BLI of CAR-T cells was assessed prior to rimiducid treatment and at 24 and 48 hours post-injection. C) Serum cytokine levels were measured from each group before (black line) and 24 hours post-administration (orange line) of rimiducid. *P-value=<0.01.

[5] = system: Caspase-9; assay: Caspase mutant classes: basal activity and ligand IC50; set-up: species or system human; conditions: mutants marked *, predicted
Source text: Modified Caspase-9 Polypeptides with Lower Basal Activity and Minimal Loss of Ligand IC50
Even though homo-dimerization of wild-type initiator Caspase-9 is energetically unfavorable, making them mostly monomers in solution [14-16], the low-level inherent basal activity of unprocessed Caspase-9 [15, 17] is enhanced in the presence of the Apaf-1-based “apoptosome”, its natural allosteric regulator [6]. Moreover, supra-physiological expression levels and/or co-localization could lead to proximity-driven dimerization, further enhancing basal activation. The modified cells of the present application may comprise nucleic acids coding for a chimeric Caspase-9 polypeptide having lower basal signaling activity. Polynucleotides comprising Caspase-9 mutants with lower basal signaling may be expressed in the modified cells used for cell therapy herein. […] In some examples, the amount of dimerizer administered may be determined as an amount designed to remove the highest amount, at least 80% or 90% of the modified cells. In other examples, the amount of dimerizer administered may be determined as an amount designed to remove only a portion of the modified cells, in order to alleviate negative symptoms or conditions, while leaving a sufficient amount of therapeutic modified cells in the patient, in order to continue therapy. […]

[6] = rimiducid administered at objective evidence of sCRS

Molecule	plasma levels versus dose ([1]; 0.01-1.0 mg/kg)	plasma levels, % of maximal concentration ([1]; 2 hours post-dose)	plasma levels, % of maximal concentration ([1]; 10 hours post-dose)	serious adverse events ([1]; Phase 1 study in volunteers)	severity of adverse events ([1]; Phase 1 study in volunteers)	doses well-tolerated ([1]; Phase I study)	mean Cmax / plasma concentrations ([1]; single doses 0.01-1.0 mg/kg infused IV over 2 hours)	adverse events possibly related to AP1903 ([1]; vasodilatation (facial flushing), 1 volunteer at 1.0 mg/kg)	time to resolution of skin and liver aGvHD ([2]; after AP1903 administration)	ablation of CD3^+ ΔCD19^+ cells ([2]; within 30 minutes of infusion, patients with grade I/II aGvHD)	further reduction of CD3^+ ΔCD19^+ cells ([2]; within 24 hours)	amount needed in vitro for effective signaling of cells [3]	CAR T cell elimination on titration ([4]; iCaspase-9 safety switch, titrated rimiducid)	resolution of clinical sCRS [4, 6]	time to normalization of cytokines [4, 6]	Basal Activity [5]
CC[C@H](C(=O)N1CCCC[C@H]1C(=O)O[C@H](CCc1ccc(OC)c(OC)c1)c1cccc(OCC(=O)NCCNC(=O)COc2cccc([C@@H](CCc3ccc(OC)c(OC)c3)OC(=O)[C@@H]3CCCCN3C(=O)[C@@H](CC)c3cc(OC)c(OC)c(OC)c3)c2)c1)c1cc(OC)c(OC)c(OC)c1 (relative stereo) [AP1903, 2-Piperidinecarboxylic acid, 1-[(2S)-1-oxo-2-(3,4,5-trimethoxyphenyl)butyl]-, 1,2-ethanediylbis [imino(2-oxo-2,1-ethanediyl)oxy-3,1-phenylene[(1R)-3-(3,4-dimethoxyphenyl)propylidene]] ester, [2S-[1(R*),2R*[S*[S*[1(R*),2R*]]]]]-(9Cl)]	directly proportional to dose	~7%	~1%	No serious adverse events occurred	mild in severity	up to 1 mg/kg	10 to 1275 ng/mL	Only one adverse event was considered possibly related to AP1903	≤ 24 h	> 90%	further log reduction	10 to 100 nM	partial T cell elimination that still preserved CAR-T cell function	complete resolution of clinical sCRS without compromising tumor control	≤ 24 h	
B1																Decreased
B2																Decreased
